From PMC2266763, “Dimerization of the transmembrane domain of amyloid precursor proteins and familial Alzheimer's disease mutants” (BMC Neuroscience, 2008)
“Also recorded” adds a separate entry of the source. Blank lines part the entries; values can stand above or below the molecule they belong to. Ends that are not written are not given here. Lys‑tag = not defined here

B1: wild-type APP-TM peptide (peptide)
peptide: GAIIGLMVGGVVIATVIVITLVML-{Lys‑tag}
modifications: not fully specified (N-terminus); reading uncertain
notes: amyloid precursor protein (APP), human, residues 700 to 723, contain the TM segment; Two versions were synthesised: Lys-tag-W-(700-723)-Lys-tag (FRET donor) and Lys-tag-E(EDANS)-(700-723)-Lys-tag (FRET acceptor); also called wild-type APP transmembrane domain peptide; source: synthetic peptide (solid-phase synthesis, purified by reverse phase C4-HPLC); not shown: oligo-lysine tag (Lys-tag), …

Key:
[1] = tested on: APP-TM dimer (self-association); test: SDS-PAGE oligomeric state; format: binding, human; settings: 20 mM SDS; for Oligomeric state by SDS-PAGE: 40 mM Tris, 8 mM Acetate (pH 7.0), 5% glycerol, 0 – 25 μM peptide, boiled 5 minutes; for Oligomeric state by SDS-PAGE, concentration range: at different concentrations (0 – 25 μM peptide), pH 7.0
Method: Samples contained 20 mM SDS, 40 mM Tris, 8 mM Acetate (pH 7.0), 5% glycerol, and 0 – 25 μM peptide. They were boiled for 5 minutes and subjected to SDS-PAGE using precast 4–12% Nupage gels (Invitrogen) and a standard running buffer. SeeBlue®Plus2 molecular weight markers from Invitrogen were used as standards.

[2] = tested on: APP-TM dimer (self-association); test: FRET dimer dissociation, APP-TM peptides in SDS micelles; format: binding, human; settings: for Kd: concentration dependence of FRET (Trp donor / EDANS acceptor, equimolar), 20 mM SDS, 40 mM Tris, 8 mM Acetate (pH 7.0), 0 – 90 μM peptide, overnight, room temperature, average error 3.6%, read-out: Apparent dimer dissociation constant
Method: (§1) Mixed peptide-SDS micelles were prepared by the addition of concentrated SDS to peptide solutions, such that the final concentrations were 20 mM SDS, 40 mM Tris, 8 mM Acetate (pH 7.0) and 0 – 90 μM peptide. The samples were sonicated and incubated overnight in the dark at room temperature before making fluorescence measurements.
(§2) Fluorescence measurements were made at room temperature using a PTI QM-1 fluorescence spectrophotometer. A quartz cuvette with a 2 mm excitation pathlength and a 1 cm emission pathlength was used. The excitation wavelength was 285 nm and the bandpass was 4 nm. We obtained a quantitative measure of the degree of peptide oligomerization by integrating the EDANS emission signal from 472–496 nm and dividing this value with the integrated Trp emission signal from 350–375 nm. This ratio of acceptor fluorescence to donor fluorescence is denoted either as Acceptor/Donor ratio or A/D ratio and can be used to compare peptide oligomerization at varying concentrations.
The apparent dissociation constants were determined using an equation derived from first principles of monomer-dimer equilibrium, where Kd = [A]^2/[A2]. The fluorescence acceptor-donor ratio was plotted against total peptide concentration and fit to the following equation:
[AT]=Kd(Fobs−Fmin/Fmax−Fmin)/2(1−Fobs−Fmin/Fmax−Fmin)^2
Where AT = total APP-TM peptide concentration, F = A/D ratio, fraction dimer = (Fobs-Fmin)/Fmax-Fmin), and % dimer = 100% (fraction dimer). The goodness-of-fit to the model were assessed using the chi-squared test, nonlinear least squares correlation, and examination of residuals.

[3] = Solubility of APP-TM peptides; format: physicochemical
[4] = tested on: wild-type APP-TM peptide; test: FRET hetero-oligomerization of wild-type and mutant APP-TM peptides; format: binding, human; settings: Trp-labeled wild-type with EDANS-labeled V717G, constant 1:1 ratio, 20 mM SDS
Method: as §1, §2

[5] = tested on: HEK293 cells stably overexpressing Swedish-mutant APP751 and γ-secretase components; test: Sulforhodamine B (SRB) cytotoxicity assay; format: cell-based; settings: SRB assay, 0, 10, 20, and 100 μM peptide, overnight
Method: Stably transfected HEK293 cells overexpressing Swedish-mutant APP751 and γ-secretase components were plated at 15,000 cells/well in DMEM media containing 10% fetal bovine serum. The cells were grown for another 48 hours with the media changed twice at equivalent time intervals. Cells were then incubated overnight in fresh media containing 0, 10, 20, and 100 μM APP-TM peptides, and the SRB cytotoxicity assay was performed as previously described.

[6] = tested on: Aβ40 and Aβ42 production; test: Aβ ELISA immunoassay, HEK293 cells expressing Swedish mutant APP and γ-secretase components; format: cell-based, human; settings: for Effect on levels of Aβ (Aβ40 and Aβ42): overnight incubation, 0, 20 or 100 μM peptide, conditioned media; for Effect on levels of Aβ (Aβ40 and Aβ42) / Effect on Aβ42/40 ratio: relative to control samples
Method: Stably transfected HEK293 cells overexpressing the Swedish double mutant (K670N/M671L) of APP751, presenilin 1, nicastrin, PEN-2 and APH-1 were grown to confluency in DMEM media containing 10% fetal bovine serum. The cells were grown for another 48 hours with the media changed twice at equivalent time intervals. Cells were then incubated overnight in fresh media containing 0, 20 or 100 μM APP-TM peptides. The media was collected and subjected to an immunoassay to determine the Aβ42 and Aβ40 concentrations. The ELISA BioSource immunoassay human β-amyloid 1–40/1–42 colorimetric kit (catalogue number KHB3482/KHB3481) was used and the standard protocol was followed. This sandwich ELISA technique makes use of an immobilized Aβ antibody that binds both Aβ40 and Aβ42 at an N-terminal epitope. The bound Aβ40 and Aβ42 are then detected using a C-terminal antibody specific for either Aβ40 or Aβ42. […] Therefore, this assay is ideally suited to detect any disturbances in the normal processing of endogeneuous full length APP in the presence of APP-TM peptides.

[7] = tested on: APP-TM oligomer (self-association); test: FRET of APP-TM peptides in DOPG phospholipid vesicles; format: binding, human; settings: 1:20 peptide:DOPG, 50 mM Tris, 10 mM NaCl (pH 7.0), room temperature, excitation 285 nm
Method: DOPG vesicles with incorporated peptides were prepared via sonication of dried lipid films in the presence of peptide solution at a molar ratio of 1 mole of peptide: 20 moles of DOPG as previously described. The samples contained 50 mM Tris, 10 mM NaCl (pH 7.0) as the buffer. […] Purified peptide-incorporated vesicle fractions were used for fluorescence measurements.
as §2

[8] = target: T714I APP-TM peptide (human); test: FRET or BRET; apparent; dimer to monomers; concentration dependence of the A/D ratio in equimolar mixtures of donor- and acceptor-labelled peptide, 20 mM SDS, 40 mM Tris, 8 mM acetate (pH 7.0), 0 – 90 μM peptide, room temperature
[9] = target: the molecule itself; test: as above
[10] = target: the molecule itself; test: SDS-PAGE of the oligomeric state; 20 mM SDS, 40 mM Tris, 8 mM acetate (pH 7.0), 5% glycerol, 0 – 25 μM peptide, boiled 5 minutes, 4–12% Nupage gels
[11] = target: B1; test: FRET or BRET; mixed: Trp-labelled wild-type with equimolar Edans-labelled mutant peptide in 20 mM SDS; A/D ratio against total peptide concentration (V717G) and at 50 μM total peptide (all mutants); baseline A/D 0.24 for non-interacting peptides; settings: both partners purified
[12] = target: V717F APP-TM peptide (human); test: FRET or BRET; apparent; dimer to monomers; concentration dependence of the A/D ratio in equimolar mixtures of donor- and acceptor-labelled peptide, 20 mM SDS, 40 mM Tris, 8 mM acetate (pH 7.0), 0 – 90 μM peptide, room temperature
[13] = 0, 20 or 100 μM peptide, overnight

Molecule: Lys-tag(W/EEDANS)GAIIGLMVGGVVIAIVIGITLVML Lys-tag [T714I, FAD mutant T714I APP-TM peptide with N- and C-terminal oligo-lysine tags]
Oligomeric state by SDS-PAGE [1]: predominantly monomeric
Relative dimer stability ([2]; among wild-type and FAD mutants tested, SDS micelles): least stable dimer
Kd [2]: 395 µM
Solubility [3]: only soluble in the presence of SDS

Molecule: Lys-tag(W/EEDANS)GAIIGLMVGGVVIATVIGITLVML Lys-tag [V717G, FAD mutant V717G APP-TM peptide with N- and C-terminal oligo-lysine tags]
Oligomeric state by SDS-PAGE [1]: populated both monomer and dimer states
Oligomeric state by SDS-PAGE, concentration range [1]: formed monomer-dimer mixtures across the same concentration range
Total peptide concentration at which A/D ratio shows signs of saturation (hetero-oligomerization) [4]: above 50 μM
Cell survival / viability [5]: neither peptide caused a reduction in cell survival
Concentration dependence of Aβ reduction [6, 13]: strong concentration dependence
Inhibitory effect on Aβ42 versus Aβ40 production [6, 13]: greater inhibitory effect on Aβ42 production (Fig. 7B) than on Aβ40 production
Suppression of Aβ production relative to wild-type peptide [6, 13]: greater than that of the wild-type peptide; also recorded: significantly greater inhibition of Aβ production than the wild-type peptide
Effect on levels of Aβ (Aβ40 and Aβ42) [6]: drastic reduction in the levels of Aβ relative to control samples
Effect on Aβ42/40 ratio [6, 13]: reduction in the Aβ42/40 ratio relative to control samples

Molecule: Lys-tag(W/EEDANS)GAIIGLMVGGVVIATVIVITLVML Lys-tag [wild-type, APP-TM peptide, residues 700 to 723 of human APP, with N- and C-terminal oligo-lysine tags; Trp or Glu-EDANS labeled]
Oligomeric state by SDS-PAGE [1]: formed stable dimers
Oligomeric state by SDS-PAGE, concentration range [1]: predominantly dimeric under all concentrations tested
Cell survival / viability [5]: neither peptide caused a reduction in cell survival
Concentration dependence of Aβ reduction [6, 13]: strong concentration dependence
Inhibitory effect on Aβ42 versus Aβ40 production [6, 13]: greater inhibitory effect on Aβ42 production (Fig. 7B) than on Aβ40 production
Effect on levels of Aβ (Aβ40 and Aβ42) [6]: drastic reduction in the levels of Aβ relative to control samples
Effect on Aβ42/40 ratio [6, 13]: reduction in the Aβ42/40 ratio relative to control samples
FRET signature (donor quenching, acceptor sensitization) in phospholipid bilayers [7]: Typical donor quenching and acceptor sensitization was observed

Molecule: T714I APP-TM peptide
Kd [8]: 395 µM

Molecule: B1
Kd [9]: 10.3 µM
stoichiometry N [10]: 2

B2: V717G APP-TM peptide (peptide)
peptide: GAIIGLMVGGVVIATVIGITLVML-{Lys‑tag}
modifications: not fully specified (N-terminus); reading uncertain
notes: amyloid precursor protein (APP), human, residues 700 to 723 with the familial Alzheimer's disease mutation V717G; Two versions (Trp donor, Glu-EDANS acceptor) as for m1; source: synthetic peptide (solid-phase synthesis, purified by reverse phase C4-HPLC); not shown: oligo-lysine tag (Lys-tag), N-terminal, kept; Trp (donor version) or Glu-EDANS (acceptor version), N-terminal, kept; oligo-lysine …
Kd [9]: 20.4 µM
binding result [11]: binds
stoichiometry N [10]: 2

The next lines start with results.

Kd [2]: 125 µM
Solubility [3]: only soluble in the presence of SDS
Molecule: Lys-tag(W/EEDANS)GAIIGLMVGGVVIATVIFITLVML Lys-tag [V717F, FAD mutant V717F APP-TM peptide with N- and C-terminal oligo-lysine tags]
Oligomeric state by SDS-PAGE [1]: predominantly monomeric

binding result [11]: binds
Kd [12]: 125 µM
B3: V717F APP-TM peptide (peptide)
peptide: GAIIGLMVGGVVIATVIFITLVML-{Lys‑tag}
modifications: not fully specified (N-terminus); reading uncertain
notes: amyloid precursor protein (APP), human, residues 700 to 723 with the familial Alzheimer's disease mutation V717F; Two versions (Trp donor, Glu-EDANS acceptor) as for m1; Said to be soluble only in the presence of SDS; source: synthetic peptide (solid-phase synthesis, purified by reverse phase C4-HPLC); not shown: oligo-lysine tag (Lys-tag), N-terminal, kept; Trp (donor version) or Glu-EDANS …
